Marks after values point to notes of the source that are not given here.
Assay: Percent purity of PTHrP analogue in coating with varying His-HCl concentration, three storage conditions (HPLC)
Format: physicochemical
Conditions: peptide 10 mg/mL in PBS
Procedure: The protein or polypeptide content in the formulation coated on the microneedle arrays was determined using an Agilent 1100 HPLC system (Agilent Technologies, Wilmington, Del.) equipped with a binary pump, well-plated thermostated autosampler, thermostated column compartment, and a diode array UV detector. A Zorbax 300SB-C8 column (Agilent Technologies, Wilmington, Del.) having a 5 μm particle size and 2.1×150 mm inner diameter was used for the separations. The column was maintained at 50° C. The mobile phase consisted of two eluents. Eluent A was 0.1% TFA (trifluoroacetic acid) in water and eluent B was 0.1% TFA in acetonitrile (Spectrum Chemical, New Brunswick, N.J.). A linear gradient from 80/20 to 50/50 (A/B) was applied over 30 minutes. The flow rate was 0.4 mL/minute and the UV detection wavelength was set at 214 nm. The total run time was 34 minutes and the sample injection volume was 15 μL.
Five sample formulations were prepared containing 10 mg/mL of [Glu^22,25,Leu^23,28,31,Aib^29,Lys^26,30]hPTHrP(1-34)NH2 and varying concentrations of L-histidine monohydrochloride (His-HCl) in PBS. The concentrations of His-HCl in the sample formulations range from 1 mg/mL to 10 mg/mL. A control formulation was also prepared containing 10 mg/mL of [Glu^22,25,Leu^23,28,31,Aib^29,Lys^26,30]hPTHrP(1-34)NH2 in PBS. […] Microneedle arrays were coated with either the sample or the control formulations. The coating was applied by dropwise addition of 40 μL of the formulation to the portion of the array defined by the octagon shaped pattern of microneedles. The flood coated arrays (both sample and control formulation coated) were dried in an oven at 35° C. for 1.5 hours followed by 30° C. for 15 hours.
After drying, the coated arrays were placed in a storage chamber that was maintained at one of three storage conditions: 40° C./96% RH (storage condition A); 25° C./60% RH (storage condition B); or 5° C./ambient RH. The [Glu^22,25,Leu^23,28,31,Aib^29,Lys^26,30]hPTHrP(1-34)NH2 content of the coated arrays was determined following storage in a chamber for 1 day, 3 days, 7 days, 14 days, 21 days, 28 days, and 2 months. The initial [Glu^22,25,Leu^23,28,31,Aib^29,Lys^26,30]hPTHrP(1-34)NH2 content was also determined using freshly coated arrays (both sample and control formulation coated). The arrays used to determine initial content were stored in a refrigerator at about 4° C. and analyzed within one day of being prepared. At the designated time point, an array was taken from the chamber and washed with PBS (3.5 mL) to remove the coating from the array. An aliquot of the resulting wash solution was analyzed for [Glu^22,25,Leu^23,28,31,Aib^29,Lys^26,30]hPTHrP(1-34)NH2 content using the HPLC method described above. The results were quantified against an external standard of [Glu^22,25,Leu^23,28,31,Aib^29,Lys^26,30]hPTHrP(1-34)NH2. At each time point, the percent purity of [Glu^22,25,Leu^23,28,31,Aib^29,Lys^26,30]hPTHrP(1-34)NH2 in the coating was determined by measuring the peak area for [Glu^22,25,Leu^23,28,31,Aib^29,Lys^26,30]hPTHrP(1-34)NH2 in the selected coating and dividing it by the total peak area measured for all [Glu^22,25,Leu^23,28,31,Aib^29,Lys^26,30]hPTHrP(1-34)NH2 related peaks.

[Glu^22,25,Leu^23,28,31,Aib^29,Lys^26,30]hPTHrP(1-34)NH2
Percent Purity of [Glu^22,25, Leu^23,28,31, Aib^29, Lys^26,30]hPTHrP(1-34)NH2 (Histidine-HCl 3.3 mg/mL, Storage Condition B (25° C./60% RH), Initial): 99.3% | Percent Purity of [Glu^22,25, Leu^23,28,31, Aib^29, Lys^26,30]hPTHrP(1-34)NH2 (Histidine-HCl 5 mg/mL, Storage Condition A (40° C./96% RH), Day 1): 98.7% | Percent Purity of [Glu^22,25, Leu^23,28,31, Aib^29, Lys^26,30]hPTHrP(1-34)NH2 (Histidine-HCl 5 mg/mL, Storage Condition A (40° C./96% RH), Day 3): 97.5% | Percent Purity of [Glu^22,25, Leu^23,28,31, Aib^29, Lys^26,30]hPTHrP(1-34)NH2 (Histidine-HCl 5 mg/mL, Storage Condition A (40° C./96% RH), Day 7): 92.0% | Percent Purity of [Glu^22,25, Leu^23,28,31, Aib^29, Lys^26,30]hPTHrP(1-34)NH2 (Histidine-HCl 5 mg/mL, Storage Condition A (40° C./96% RH), Day 14): 65.1% | Percent Purity of [Glu^22,25, Leu^23,28,31, Aib^29, Lys^26,30]hPTHrP(1-34)NH2 (Histidine-HCl 5 mg/mL, Storage Condition A (40° C./96% RH), Day 21, the sample for analysis contained insoluble impurities): 33.8^(a) percent | Percent Purity of [Glu^22,25, Leu^23,28,31, Aib^29, Lys^26,30]hPTHrP(1-34)NH2 (Histidine-HCl 5 mg/mL, Storage Condition A (40° C./96% RH), Initial): 99.0% | Percent Purity of [Glu^22,25, Leu^23,28,31, Aib^29, Lys^26,30]hPTHrP(1-34)NH2 (Histidine-HCl 5 mg/mL, Storage Condition B (25° C./60% RH), 2 months): 98.4% | Percent Purity of [Glu^22,25, Leu^23,28,31, Aib^29, Lys^26,30]hPTHrP(1-34)NH2 (Histidine-HCl 5 mg/mL, Storage Condition B (25° C./60% RH), Day 3): 98.9% | Percent Purity of [Glu^22,25, Leu^23,28,31, Aib^29, Lys^26,30]hPTHrP(1-34)NH2 (Histidine-HCl 5 mg/mL, Storage Condition B (25° C./60% RH), Day 7): 98.9% | Percent Purity of [Glu^22,25, Leu^23,28,31, Aib^29, Lys^26,30]hPTHrP(1-34)NH2 (Histidine-HCl 5 mg/mL, Storage Condition B (25° C./60% RH), Day 14): 98.9% | Percent Purity of [Glu^22,25, Leu^23,28,31, Aib^29, Lys^26,30]hPTHrP(1-34)NH2 (Histidine-HCl 5 mg/mL, Storage Condition B (25° C./60% RH), Day 28): 98.8% | Percent Purity of [Glu^22,25, Leu^23,28,31, Aib^29, Lys^26,30]hPTHrP(1-34)NH2 (Histidine-HCl 5 mg/mL, Storage Condition B (25° C./60% RH), Initial): 99.0% | Percent Purity of [Glu^22,25, Leu^23,28,31, Aib^29, Lys^26,30]hPTHrP(1-34)NH2 (Histidine-HCl 10 mg/mL, Storage Condition A (40° C./96% RH), Day 1): 98.7% | Percent Purity of [Glu^22,25, Leu^23,28,31, Aib^29, Lys^26,30]hPTHrP(1-34)NH2 (Histidine-HCl 10 mg/mL, Storage Condition A (40° C./96% RH), Day 3): 98.5% | Percent Purity of [Glu^22,25, Leu^23,28,31, Aib^29, Lys^26,30]hPTHrP(1-34)NH2 (Histidine-HCl 10 mg/mL, Storage Condition A (40° C./96% RH), Day 7): 97.7% | Percent Purity of [Glu^22,25, Leu^23,28,31, Aib^29, Lys^26,30]hPTHrP(1-34)NH2 (Histidine-HCl 10 mg/mL, Storage Condition A (40° C./96% RH), Day 14): 94.9% | Percent Purity of [Glu^22,25, Leu^23,28,31, Aib^29, Lys^26,30]hPTHrP(1-34)NH2 (Histidine-HCl 10 mg/mL, Storage Condition A (40° C./96% RH), Day 21): 80.8% | Percent Purity of [Glu^22,25, Leu^23,28,31, Aib^29, Lys^26,30]hPTHrP(1-34)NH2 (Histidine-HCl 10 mg/mL, Storage Condition A (40° C./96% RH), Initial): 99.0% | Percent Purity of [Glu^22,25, Leu^23,28,31, Aib^29, Lys^26,30]hPTHrP(1-34)NH2 (Histidine-HCl 10 mg/mL, Storage Condition B (25° C./60% RH), Day 3): 98.9% | Percent Purity of [Glu^22,25, Leu^23,28,31, Aib^29, Lys^26,30]hPTHrP(1-34)NH2 (Histidine-HCl 10 mg/mL, Storage Condition B (25° C./60% RH), Day 7): 98.9% | Percent Purity of [Glu^22,25, Leu^23,28,31, Aib^29, Lys^26,30]hPTHrP(1-34)NH2 (Histidine-HCl 10 mg/mL, Storage Condition B (25° C./60% RH), Day 14): 98.8% | Percent Purity of [Glu^22,25, Leu^23,28,31, Aib^29, Lys^26,30]hPTHrP(1-34)NH2 (Histidine-HCl 10 mg/mL, Storage Condition B (25° C./60% RH), Initial): 99.0% | Percent Purity of [Glu^22,25, Leu^23,28,31, Aib^29, Lys^26,30]hPTHrP(1-34)NH2 (Histidine-HCl none, Storage Condition B (25° C./60% RH), 2 months): 96.3% | Percent Purity of [Glu^22,25, Leu^23,28,31, Aib^29, Lys^26,30]hPTHrP(1-34)NH2 (Histidine-HCl none, Storage Condition B (25° C./60% RH), Day 3): 97.9% | Percent Purity of [Glu^22,25, Leu^23,28,31, Aib^29, Lys^26,30]hPTHrP(1-34)NH2 (Histidine-HCl none, Storage Condition B (25° C./60% RH), Day 7): 98.0% | Percent Purity of [Glu^22,25, Leu^23,28,31, Aib^29, Lys^26,30]hPTHrP(1-34)NH2 (Histidine-HCl none, Storage Condition B (25° C./60% RH), Day 14): 97.7% | Percent Purity of [Glu^22,25, Leu^23,28,31, Aib^29, Lys^26,30]hPTHrP(1-34)NH2 (Histidine-HCl none, Storage Condition B (25° C./60% RH), Day 28): 97.5% | Percent Purity of [Glu^22,25, Leu^23,28,31, Aib^29, Lys^26,30]hPTHrP(1-34)NH2 (Histidine-HCl none, Storage Condition B (25° C./60% RH), Initial): 98.7%

Source: patent US10154957B2, “Microneedle device having a peptide therapeutic agent and an amino acid and methods of making and using the same” (3M INNOVATIVE PROPERTIES COMPANY, priority 2011, dated 2018)
